These results are taken from patent US9926275B2 (priority 2013, dated 2018).

A word on the EC50: it is the concentration giving half of the maximal effect.

Each structure is given as a SMILES string.

The target in assay [1] is T1, CB1 receptor (Homo sapiens, UniProt P21554). Briefly: DiscoveRx HitHunter cAMP XS+ assay in cAMP Hunter cell line, allosteric modulation of CP55,940 response. Type of assay: cell-based. As for the experimental part: Once it was established that the cells were healthy and growing normally, cells were passaged from flasks using cell dissociation reagent buffer and seeded into white walled clear bottom 384-well microplates for compound profiling. For profiling, cells were seeded at a density of 10000 cells per well in a total volume of 20 μL and were allowed to adhere and recover overnight prior to compound addition. Cells were treated the following day using the protocols shown below. cAMP modulation was determined using the DiscoveRx HitHunter cAMP XS+ assay.
T1 sequence (P21554 whole entry): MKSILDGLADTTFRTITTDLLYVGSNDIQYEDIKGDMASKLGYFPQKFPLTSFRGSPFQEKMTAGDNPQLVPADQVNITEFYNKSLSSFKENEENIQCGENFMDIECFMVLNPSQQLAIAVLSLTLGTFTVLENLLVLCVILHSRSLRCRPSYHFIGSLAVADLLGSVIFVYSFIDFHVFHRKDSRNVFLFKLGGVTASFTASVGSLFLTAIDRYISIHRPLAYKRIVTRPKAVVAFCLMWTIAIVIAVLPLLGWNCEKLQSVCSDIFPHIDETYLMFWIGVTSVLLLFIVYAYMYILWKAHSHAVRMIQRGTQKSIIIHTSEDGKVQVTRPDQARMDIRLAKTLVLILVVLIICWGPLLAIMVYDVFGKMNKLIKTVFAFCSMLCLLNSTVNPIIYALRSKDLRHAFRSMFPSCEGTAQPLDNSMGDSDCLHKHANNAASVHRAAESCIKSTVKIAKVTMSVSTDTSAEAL
Media was aspirated from cells and replaced with 10 μL 1:1 HBSS/Hepes: cAMP XS+ Ab reagent. Agonist (CP55,940) dose curves were performed to determine the EC20 value for the testing with the compounds of the present technology. 5 μL of 4× agonist was added to each well with an equal concentration of vehicle present. EC20 agonist concentration was determined directly from agonist dose curve.
(§1) For allosteric determination, cells were preincubated with compound followed by agonist challenge at the EC20 concentration of the agonist. 5 μL of 4× compound was added to cells and incubated at 37° C. for 30 minutes. 5 μL of 4× EC20 agonist was added to cells and incubated at 37° C. for 30 minutes.
Signal Detection: After appropriate compound incubation, assay signal was generated through incubation with 20 μL cAMP XS+ED/CL lysis cocktail for one hour followed by incubation with 20 μL cAMP XS+EA reagent for three hours at room temperature. Microplates were read following signal generation with a PerkinElmer Envision™ instrument for chemiluminescent signal detection.
(§2) Data Analysis: Dose curves were plotted using GraphPad Prism or Activity Base. The percentage activity is calculated using the following formula: % Activity=100%×(1−(mean RLU of test sample−mean RLU of MAX control)/(mean RLU of vehicle control [EC20 for PAM]−mean RLU of MAXcontrol).
(§3) Agonist (CP55,940) dose curves were performed for the CNR1 PathHunter and cAMP Hunter cell lines. […] The cAMP assay was performed in the presence of 20 μM forskolin (EC80).
(§4) In Vitro Evaluation: The in vitro evaluation of the covalent allosteric modulators was performed using as described previously.

In assay [2] the target is T1, CB1 receptor. Briefly: β-arrestin recruitment in CNR1 PathHunter cell line, allosteric modulation of CP55,940 response. Type of assay: cell-based. As for the experimental part: as §1, §2, §3, §4
Setting [3] is: Table 1, preincubation with compound, then CP55,940 challenge, 20 μM forskolin.
The mark [4] stands for this setting: Table 1, preincubation with compound, then CP55,940 challenge, 20 μM forskolin, read-out: cAMP EC50.
[5] abbreviates: Table 1, CP55,940 as agonist, read-out: β-arrestin EC50.

Regarding `Cc1ccccc1NC(=O)Nc1cccc(-c2cccc(N3CCCC3)n2)c1` [Compound 10p, 1-(3-(6-(Pyrrolidin-1-yl)pyridin-2-yl)phenyl)-3-(o-tolyl)urea], the cAMP % inhibition on CB1 receptor [1] (setting [3]) amounted to 97%. The EC50 at CB1 receptor [1] (setting [4]) was 1700 nM; at CB1 receptor [2] (setting [5]), 361 nM. Besides, the β-arrestin % inhibition at CB1 receptor [2] (Table 1, CP55,940 as agonist) turned out to be 104%.

As for `O=C(Nc1cccc(-c2cccc(N3CCCC3)n2)c1)Nc1cccc2ccccc12` [Compound 10w, 1-(Naphthalen-1-yl)-3-(3-(6-(pyrrolidin-1-yl)pyridin-2-yl)phenyl)urea], the cAMP % inhibition on CB1 receptor [1] (setting [3]) was 69%. The values for the 50% effective concentration (EC50) at CB1 receptor [1] (setting [4]) and at CB1 receptor [2] (setting [5]) were 1260 ± 125 nM and 1270 nM, respectively. At CB1 receptor [2] (Table 1, CP55,940 as agonist), the β-arrestin % inhibition is 109%.

As to `S=C(Nc1ccc(Cl)cc1)Nc1cccc(-c2cccc(N3CCCC3)n2)c1` [Compound 32, 1-(4-Chlorophenyl)-3-(3-(6-(pyrrolidin-1-yl)pyridin-2-yl)phenyl)thiourea], the cAMP % inhibition at CB1 receptor [1] (setting [3]) is 77%. In addition, the EC50 on CB1 receptor [1] (setting [4]) was 830 nM; on CB1 receptor [2] (setting [5]) it was 276 nM. Moreover, the β-arrestin % inhibition at CB1 receptor [2] (Table 1, CP55,940 as agonist) stood at 110%.

Turning to `O=C(Nc1ccc(N=C=S)cc1)Nc1cccc(-c2cccc(N3CCCC3)n2)c1` [GAT332], the EC50 turned out to be 119 nM on CB1 receptor [1] (Table 2, covalent allosteric modulators, read-out: cAMP activity EC50 (nm)) and 24 nM on CB1 receptor [2] (Table 2, covalent allosteric modulators, read-out: β-arrestin activity EC50 (nm)). The Emax at CB1 receptor [1] (read-out: cAMP activity ECMax (%)) worked out at 78.9%; on CB1 receptor [2] (read-out: β-arrestin activity EMax (%)), 106%.

Regarding `CCc1ccccc1NC(=O)Nc1cccc(-c2cccc(N3CCCC3)n2)c1` [Compound 10r, 1-(2-Ethylphenyl)-3-(3-(6-(pyrrolidin-1-yl)pyridin-2-yl)phenyl)urea], the cAMP % inhibition on CB1 receptor [1] (setting [3]) is on record as 42%. The EC50 was determined as 1190 ± 120 nM on CB1 receptor [1] (setting [4]) and 3320 nM at CB1 receptor [2] (setting [5]). The β-arrestin % inhibition on CB1 receptor [2] (Table 1, CP55,940 as agonist) came out at 76%.

In the case of `O=C(Nc1ccc(Cl)cc1)Nc1ccc(-c2cccc(N3CCCC3)n2)cc1` [Compound 51, 1-(4-Chlorophenyl)-3-(4-(6-(pyrrolidin-1-yl)pyridin-2-yl)phenyl)urea], the cAMP % inhibition on CB1 receptor [1] (setting [3]) came to 11%. Further, the EC50 at CB1 receptor [1] (setting [4]) was greater than 10000 nM; on CB1 receptor [2] (setting [5]), 206 nM. Also, the β-arrestin % inhibition at CB1 receptor [2] (Table 1, CP55,940 as agonist) amounted to 109%.

Consider `O=C(Nc1ccc(Cl)cc1)Nc1cccc(-c2ccc(N3CCCC3)nc2)c1` [Compound 61, 1-(4-Chlorophenyl)-3-(3-(6-(pyrrolidin-1-yl)pyridin-3-yl)phenyl)urea], for which the cAMP % inhibition at CB1 receptor [1] (setting [3]) is reported as 6%. Moreover, the figures for the EC50 on CB1 receptor [1] (setting [4]) and at CB1 receptor [2] (setting [5]) were greater than 10000 nM and 880 nM, respectively. Moreover, the β-arrestin % inhibition at CB1 receptor [2] (Table 1, CP55,940 as agonist) turned out to be 105%.

Turning to `O=C(Nc1cccc(-c2cccc(N3CCCC3)n2)c1)Nc1cccc(C(F)(F)F)c1` [Compound 10f, 1-(3-(6-(Pyrrolidin-1-yl)pyridin-2-yl)phenyl)-3-(3-(trifluoromethyl)phenyl)urea], the cAMP % inhibition at CB1 receptor [1] (setting [3]) is given as 116%. The EC50 worked out at 242 nM at CB1 receptor [1] (setting [4]) and 220 nM at CB1 receptor [2] (setting [5]). At CB1 receptor [2] (Table 1, CP55,940 as agonist), the β-arrestin % inhibition turned out to be 129%.

Take `O=C(Nc1cccc(-c2cccc(N3CCCC3)n2)c1)Nc1ccc(Cl)c(C#CCCO)c1` [Compound 22b, 1-(4-Chloro-3-(4-hydroxybut-1-yn-1-yl)phenyl)-3-(3-(6-(pyrrolidin-1-yl)pyridin-2-yl)phenyl)urea]: on CB1 receptor [1] (setting [3]), the cAMP % inhibition came out at 152%. Also, the values for the EC50 at CB1 receptor [1] (setting [4]) and at CB1 receptor [2] (setting [5]) were 551 nM and 149 nM, respectively. For the same molecule, at CB1 receptor [2] (Table 1, CP55,940 as agonist), the β-arrestin % inhibition is on record as 123%.

Take `O=C(Nc1ccc(Cl)cc1)Nc1cccc(-c2cccc(N3CCNCC3)n2)c1` [Compound 67b, 1-(4-Chlorophenyl)-3-(3-(6-(piperazin-1-yl)pyridin-2-yl)phenyl)urea]: on CB1 receptor [1] (setting [3]), the cAMP % inhibition came to 113%. For the same molecule, the concentration for a half-maximal effect (EC50) at CB1 receptor [1] (setting [4]) turned out to be 274 nM; on CB1 receptor [2] (setting [5]) it was 25 nM. The β-arrestin % inhibition at CB1 receptor [2] (Table 1, CP55,940 as agonist) was 110%.

`O=C(Nc1cccc(-c2cccc(N3CCCC3)n2)c1)Nc1ccc(Cl)cc1C#CCCOC1CCCCO1` (centres unmarked) [Compound 21a, 1-(4-Chloro-2-(4-((tetrahydro-2H-pyran-2-yl)oxy)but-1-yn-1-yl)phenyl)-3-(3-(6-(pyrrolidin-1-yl)pyridin-2-yl)phenyl)urea]: the cAMP % inhibition on CB1 receptor [1] (setting [3]) was determined as 9%. The EC50 at CB1 receptor [1] (setting [4]) is greater than 10000 nM; on CB1 receptor [2] (setting [5]), 3400 nM. On CB1 receptor [2] (Table 1, CP55,940 as agonist), the β-arrestin % inhibition is on record as 73%.
